Measured values: patent publication US6780872B2, “Tricyclic dihydropyrazolone and tricyclic dihydroisoxazolone potassium channel openers” (Abbott Laboratories, priority 2000, dated 2004)

Test system: guinea-pig urinary bladder (GPB) cells
Test: Membrane hyperpolarization (MHP) assay, DiBAC(4)3 dye, FLIPR
Assay type: cell-based
Details: Cavia porcellus; for Emax: maximal steady-state hyperpolarization in GPB cells, normalized to response with 10 μM P1075 (=100%); for EC50: membrane hyperpolarization in GPB cells, concentration eliciting 50% of the maximal response of the test sample
Protocol: Compounds were evaluated for potassium channel opening activity using primary cultured guinea-pig urinary bladder (GPB) cells.
For the preparation of urinary bladder smooth muscle cells, urinary bladders were removed from male guinea-pigs (Hartley, Charles River, Wilmington, Mass.) weighing 300-400 g and placed in ice-cold Ca^2+-free Krebs solution (Composition, mM: KCl, 2.7; KH2PO4, 1.5; NaCl, 75; Na2HPO4, 9.6; Na2HPO4.7H2O, 8; MgSO4, 2; glucose, 5; HEPES, 10; pH 7.4). Cells were isolated by enzymatic dissociation as previously described with minor modifications in (Klockner, U. and Isenberg, G., Pflugers Arch. 1985, 405, 329-339), hereby incorporated by reference. The bladder was cut into small sections and incubated in 5 mL of the Kreb's solution containing 1 mg/mL collagenase (Sigma, St. Louis, Mo.) and 0.2 mg/mL pronase (Calbiochem, La Jolla, Calif.) with continuous stirring in a cell incubator for 30 minutes. The mixture was then centrifuged at 1300×g for 5 minutes, and the pellet resuspended in Dulbecco's PBS (GIBCO, Gaithersburg, Md.) and recentrifuged to remove residual enzyme. The cell pellet was resuspended in 5 mL growth media (composition: Dulbecco's modified Eagle's medium supplemented with 10% fetal bovine serum, 100 units/mL penicillin, 100 units/mL streptomycin and […] amphotericin B) and further dissociated by pipetting the suspension through a flame-polished Pasteur pipette and passing it through a polypropylene mesh membrane (Spectrum, Houston, Tex.). The cell density was adjusted to 100,000 cells/mL by resuspension in growth media. Cells were plated in clear-bottomed black 96-well plates (Packard) for membrane potential studies at a density of 20,000 cells/well and maintained in a cell incubator with 90% air: 10% CO2 until confluent. Cells were confirmed to be of smooth muscle type by cytoskeletal staining using a monoclonal mouse anti human-α-smooth muscle actin (Biomeda, Foster City, Calif.).
Functional activity at potassium channels was measured by evaluating changes in membrane potential using the bis-oxonol dye DiBAC(4)3 (Molecular Probes) in a 96-well cell-based kinetic assay system, Fluorescent Imaging Plate Reader (FLIPR) (K. S. Schroeder et al., J. Biomed. Screen., v. 1 pp. 7581 (1996)), hereby incorporated by reference. DiBAC(4) is an anionic potentiometric probe which partitions between cells and extracellular solution in a membrane potential-dependent manner. With increasing membrane potential (for example, K^+ depolarization), the probe further partitions into the cell; this is measured as an increase in fluorescence due to dye interaction with intracellular lipids and proteins. Conversely, decreasing membrane potential (hyperpolarization by potassium channel openers) evokes a decrease in fluorescence.
Confluent guinea-pig urinary bladder cells cultured in black clear-bottomed 96-well plates were rinsed twice with […] assay buffer (composition, mM: HEPES, 20; NaCl, 120; KCl, 2; CaCl2, 2; MgCl2, 1; glucose, 5; pH 7.4 at 25° C.) containing 5 μM DiBAC(4) and incubated with […] of the buffer in a cell incubator for 30 minutes at 37° C. to ensure dye distribution across the membrane. After recording the baseline fluorescence for 5 minutes, the reference or test compounds, prepared at 10 times the concentration in the assay buffer, were added directly to the wells. Changes in fluorescence were monitored for an additional 25 minutes. Hyperpolarization responses were corrected for any background noise and were normalized to the response observed with 10 μM of the reference compound P1075, N″-cyano-N-(tert-pentyl)-N′-(3-pyridinyl)guanidine, which was assigned as 100%. P1075 is a potent opener of smooth muscle KATP channels (Quast et al., Mol. Pharmacol., v. 43 pp. 474-481 (1993)) and was prepared using the procedures described in (Manley, J. Med. Chem. (1992) 35, 2327-2340), hereby incorporated by reference. […]

| EC50 [nM] | SMILES | Emax [%] |
| --- | --- | --- |
| 270 | CCn1[nH]c(=O)c2c1NC1=C(C(=O)CC1)C2c1ccc(F)c(Br)c1 (stereo not drawn) [Example 4, 4-(3-bromo-4-fluorophenyl)-1-ethyl-1,2,4,6,7,8-hexahydrocyclopenta[b]pyrazolo[4,3-e]pyridine-3,5-dione] | 103 |
| 480 | Cc1ccc(C2C3=C(CCC3=O)Nc3c2c(=O)[nH]n3C)cc1Br (stereo not drawn) [Example 8, 4-(3-bromo-4-methylphenyl)-1-methyl-1,2,4,6,7,8-hexahydrocyclopenta[b]pyrazolo[4,3-e]pyridine-3,5-dione] | 83 |
| 680 | Cn1[nH]c(=O)c2c1NC1=C(C(=O)CC1)C2c1ccc(F)c(C(F)(F)F)c1 (stereo not drawn) [Example 9, 4-[4-fluoro-3-(trifluoromethyl)phenyl]-1-methyl-1,2,4,6,7,8-hexahydrocyclopenta[b]pyrazolo[4,3-e]pyridine-3,5-dione] | 89 |
